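GI50 is the concentration that inhibits growth by half. TGI is the concentration that stops growth completely.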
Columns and labels:
Assay in all cases: NCI anticancer screen, dose series, 384-well format
SNB-75 CNS = test system: SNB-75 CNS
UACC-257 melanoma = test system: UACC-257 melanoma
NCI-H460 NSCLC = test system: NCI-H460 NSCLC
U251 glioblastoma = test system: U251 glioblastoma
HOP-62 NSCLC = test system: HOP-62 NSCLC
SN12C renal = test system: SN12C renal
MALME-3M melanoma = test system: MALME-3M melanoma
SNB-19 CNS = test system: SNB-19 CNS
EKVX NSCLC = test system: EKVX NSCLC
SK-MEL-28 melanoma = test system: SK-MEL-28 melanoma
OVCAR-4 ovarian = test system: OVCAR-4 ovarian
NCI-H522 lung = test system: NCI-H522 lung
SK-MEL-2 melanoma = test system: SK-MEL-2 melanoma
HT29 colon = test system: HT29 colon
RXF 393 renal = test system: RXF 393 renal
CAKI-1 renal = test system: CAKI-1 renal
OVCAR-8 ovarian = test system: OVCAR-8 ovarian
786-0 renal = test system: 786-0 renal
HL-60(TB) leukemia = test system: HL-60(TB) leukemia
MDA-MB-468 breast = test system: MDA-MB-468 breast
PC-3 prostate = test system: PC-3 prostate
M14 melanoma = test system: M14 melanoma
HCT-15 colon = test system: HCT-15 colon
RPMI-8226 leukemia = test system: RPMI-8226 leukemia
KM12 colon = test system: KM12 colon
MCF7 breast = test system: MCF7 breast
ACHN renal = test system: ACHN renal
SK-OV-3 ovarian = test system: SK-OV-3 ovarian
LOX IMVI melanoma = test system: LOX IMVI melanoma
NCI/ADR-RES ovarian = test system: NCI/ADR-RES ovarian
DU-145 prostate = test system: DU-145 prostate
OVCAR-3 ovarian = test system: OVCAR-3 ovarian
COLO 205 colon = test system: COLO 205 colon
A549 NSCLC = test system: A549 NSCLC
HCT-116 colon = test system: HCT-116 colon
MOLT-4 leukemia = test system: MOLT-4 leukemia
IGROV1 ovarian = test system: IGROV1 ovarian
UACC-62 melanoma = test system: UACC-62 melanoma
NCI-H322M lung = test system: NCI-H322M lung
A498 renal = test system: A498 renal
SW-620 colon = test system: SW-620 colon
BT-549 breast = test system: BT-549 breast
NCI-H23 lung = test system: NCI-H23 lung
TK-10 renal = test system: TK-10 renal
NCI-H226 lung = test system: NCI-H226 lung
SF-539 CNS = test system: SF-539 CNS
CCRF-CEM leukemia = test system: CCRF-CEM leukemia
HS 578T breast = test system: HS 578T breast
HOP-92 NSCLC = test system: HOP-92 NSCLC
K-562 leukemia = test system: K-562 leukemia
MDA-MB-435 melanoma = test system: MDA-MB-435 melanoma
SF-295 CNS = test system: SF-295 CNS
SK-MEL-5 melanoma = test system: SK-MEL-5 melanoma
HCC-2998 colon = test system: HCC-2998 colon
SF-268 CNS = test system: SF-268 CNS

N#Cc1ccc(OC(=O)Nc2cc(Cl)cc(Cl)c2)cc1
GI50 (SNB-75 CNS): 3.32 µM
TGI (SNB-75 CNS): 9.94 µM
GI50 (UACC-257 melanoma): 6.12 µM
TGI (UACC-257 melanoma): 15.9 µM
GI50 (NCI-H460 NSCLC): 2.84 µM
TGI (NCI-H460 NSCLC): 6.62 µM
GI50 (U251 glioblastoma): 3.43 µM
TGI (U251 glioblastoma): 7.96 µM
GI50 (HOP-62 NSCLC): 3.03 µM
TGI (HOP-62 NSCLC): 6.05 µM
GI50 (SN12C renal): 4 µM
TGI (SN12C renal): 13.2 µM
GI50 (MALME-3M melanoma): 5.9 µM
TGI (MALME-3M melanoma): 16.4 µM
GI50 (SNB-19 CNS): 4.74 µM
TGI (SNB-19 CNS): 19.1 µM
GI50 (EKVX NSCLC): 3.92 µM
TGI (EKVX NSCLC): 12.6 µM
GI50 (SK-MEL-28 melanoma): 13.1 µM
TGI (SK-MEL-28 melanoma): 30.6 µM
GI50 (OVCAR-4 ovarian): 8.27 µM
TGI (OVCAR-4 ovarian): 62.2 µM
GI50 (NCI-H522 lung): 3.23 µM
TGI (NCI-H522 lung): 7.63 µM
GI50 (SK-MEL-2 melanoma): 2.84 µM
TGI (SK-MEL-2 melanoma): 5.82 µM
GI50 (HT29 colon): 4.43 µM
TGI (HT29 colon): 17.3 µM
GI50 (RXF 393 renal): 6.26 µM
TGI (RXF 393 renal): 17.7 µM
GI50 (CAKI-1 renal): 3.69 µM
TGI (CAKI-1 renal): 10.2 µM
GI50 (OVCAR-8 ovarian): 4.1 µM
TGI (OVCAR-8 ovarian): 12.6 µM
GI50 ([…]-0 renal): 7.03 µM
TGI (786-0 renal): 20.1 µM
GI50 (HL-60(TB) leukemia): 1.77 µM
TGI (HL-60(TB) leukemia): 3.16 µM
GI50 (MDA-MB-468 breast): 9.04 µM
TGI (MDA-MB-468 breast): 20.9 µM
GI50 (PC-3 prostate): 3.27 µM
TGI (PC-3 prostate): 7.27 µM
GI50 (M14 melanoma): 5.38 µM
TGI (M14 melanoma): 15 µM
GI50 (HCT-15 colon): 4.14 µM
TGI (HCT-15 colon): 12.1 µM
GI50 (RPMI-8226 leukemia): 2.04 µM
TGI (RPMI-8226 leukemia): 3.48 µM
GI50 (KM12 colon): 3.74 µM
TGI (KM12 colon): 11 µM
GI50 (MCF7 breast): 3.75 µM
TGI (MCF7 breast): 16 µM
GI50 (ACHN renal): 3.51 µM
TGI (ACHN renal): 10 µM
GI50 (SK-OV-3 ovarian): 6 µM
TGI (SK-OV-3 ovarian): 19.9 µM
GI50 (LOX IMVI melanoma): 3.81 µM
TGI (LOX IMVI melanoma): 12.7 µM
GI50 (NCI/ADR-RES ovarian): 3.79 µM
TGI (NCI/ADR-RES ovarian): 9.65 µM
GI50 (DU-145 prostate): 4.29 µM
TGI (DU-145 prostate): 55.5 µM
GI50 (OVCAR-3 ovarian): 2.44 µM
TGI (OVCAR-3 ovarian): 5.16 µM
GI50 (COLO 205 colon): 6.65 µM
TGI (COLO 205 colon): 23.9 µM
GI50 (A549 NSCLC): 3.78 µM
TGI (A549 NSCLC): 12.7 µM
GI50 (HCT-116 colon): 3.12 µM
TGI (HCT-116 colon): 7.62 µM
GI50 (MOLT-4 leukemia): 2 µM
TGI (MOLT-4 leukemia): 3.7 µM
GI50 (IGROV1 ovarian): 4.43 µM
TGI (IGROV1 ovarian): 15.3 µM
GI50 (UACC-62 melanoma): 7.22 µM
TGI (UACC-62 melanoma): 19.3 µM
GI50 (NCI-H322M lung): 11.6 µM
TGI (NCI-H322M lung): 29.4 µM
GI50 (A498 renal): 3.47 µM
TGI (A498 renal): 9.21 µM
GI50 (SW-620 colon): 4.54 µM
TGI (SW-620 colon): 14.6 µM
GI50 (BT-549 breast): 13.4 µM
TGI (BT-549 breast): 30.8 µM
GI50 (NCI-H23 lung): 2.23 µM
TGI (NCI-H23 lung): 4.16 µM
GI50 (TK-10 renal): 4.01 µM
TGI (TK-10 renal): 13.1 µM
GI50 (NCI-H226 lung): 3.27 µM
TGI (NCI-H226 lung): 8.97 µM
GI50 (SF-539 CNS): 4.28 µM
TGI (SF-539 CNS): 13.4 µM
GI50 (CCRF-CEM leukemia): 2.19 µM
TGI (CCRF-CEM leukemia): 5.31 µM
GI50 (HS 578T breast): 7.57 µM
TGI (HS 578T breast): 20.5 µM
GI50 (HOP-92 NSCLC): 3.23 µM
TGI (HOP-92 NSCLC): 7.12 µM
GI50 (K-562 leukemia): 7.71 µM
TGI (K-562 leukemia): 93.1 µM
GI50 (MDA-MB-435 melanoma): 8.94 µM
TGI (MDA-MB-435 melanoma): 23.6 µM
GI50 (SF-295 CNS): 3.07 µM
TGI (SF-295 CNS): 8.78 µM
GI50 (SK-MEL-5 melanoma): 4.36 µM
TGI (SK-MEL-5 melanoma): 13.2 µM
GI50 (HCC-2998 colon): 13.2 µM
TGI (HCC-2998 colon): 30.8 µM
GI50 (SF-268 CNS): 5.61 µM
TGI (SF-268 CNS): 21.6 µM

— PubChem BioAssay (NCI)
